EP4397674A1, “CASPASE-2 INHIBITOR COMPOUNDS” (Kintsugi Therapeutics S.L., priority 2023, dated 2024)
Several values for one entry are separate records, joined by “and”; a condition that tells them apart may be missing. Equal entries are not always repeated.

How the values were obtained:
Type in all cases: biochemical
caspase-2 [1] = target: T1, caspase-2 (Homo sapiens, UniProt P42575); experiment: Kinetic assay of individual fluorogenic substrates NH-Idc-P4-P3-Dab-Asp-ACC (Example 4); settings: substrate 10µM, caspase-2 10nM, 37°C; relative to NH-Idc-hGlu-Glu(Chx)-Dab-Asp-ACC
T1 sequence (P42575 170-333 limits assumed): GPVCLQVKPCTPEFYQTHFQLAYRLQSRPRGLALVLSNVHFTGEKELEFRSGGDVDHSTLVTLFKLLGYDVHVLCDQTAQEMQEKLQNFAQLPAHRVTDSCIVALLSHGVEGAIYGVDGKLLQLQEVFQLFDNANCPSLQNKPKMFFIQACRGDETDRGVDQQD
T1 sequence (P42575 348-452 limits assumed): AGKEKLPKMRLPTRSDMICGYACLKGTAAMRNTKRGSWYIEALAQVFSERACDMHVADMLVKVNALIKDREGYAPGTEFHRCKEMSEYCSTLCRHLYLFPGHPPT
Method: Caspase-2 substrates were synthesized according to standard SPPS procedure, purified on HPLC, lyophilized and dissolved in DMSO to the final concentration of 20mM (Poreba et al. 2014, CDD). In particular, the following caspase-2 substrates were synthesized to carry out the present example: [drawing 66] [drawing 67] [drawing 68] [drawing 69] [drawing 70] [drawing 71]
Prior to kinetic assay, substrates (several µL) were diluted in DMSO to the […] (working concentration). Next, 1µL of such substrate was spot into the well of 96-well plate following by the addition of […] of caspase-2 in buffer. Immediately after the enzyme was added, the plate was placed in fluorescence plate reader and the fluorescence was measured over the time in a kinetic mode (excitation 355nm, emission 460nm). The liberation of fluorescence was carried out for 30 minutes, and only linear portion of the plot was taken for analysis to calculate the rate of the reaction. The rate of best cleaved substrate was set to 100% and all other substrates were adjusted accordingly (cleavage rate, %). The final concentration of substrate was 10µM, and the final concentration of caspase-2 was 10nM. The caspase-2 assay buffer was 20mM Pipes, 100mM NaCl, sucrose 10% (w/v), 10mM DTT, pH 7.2-7.4. The caspase-2 was preincubated in buffer at 37°C for 15 min before added to the substrate.

caspase-2 [2] = target: T1, caspase-2; experiment: Enzymatic kinetic studies, determination of kobs/I inhibition parameter; parameters: made in house; settings: for kobs/I: Caspase-2, pseudo-first-order conditions, substrate NH-ldc-hGlu-Thr(Bzl)-Ser-Asp-ACC (50uM), 37°C, dot = thousands separator
Method: (§1) The measurement of kobs/l inhibition parameter (second order rate of enzyme inhibition) of synthesized inhibitors towards caspases-2, -3, and -8 was performed using a fMax spectrofluorimeter (Molecular Devices, Sunnyvale, CA, USA) operating in fluorescence kinetic mode in 96-well Corning (Corning, NY, USA) plates. Before kinetic analysis, all caspases were active site-titrated using the zVAD-fmk inhibitor (Cayman Chemical Company, Cat No. 14467). The caspases assay buffer was 10% w/v sucrose, 1M sodium citrate, 20 mM Pipes, 10 mM NaCl, 1 mM EDTA, and 10 mM DTT (pH = 7.3). Buffers were prepared at room temperature, and all kinetic assays were performed at 37°C. The kobs/l parameter was measured under pseudo-first-order kinetic conditions ([I] » [E]). Inhibitor (20uL) was diluted in a 96-well plate and mixed with the appropriate substrate (20uL); NH-ldc-hGlu-Thr(Bzl)-Ser-Asp-ACC (50uM) for caspase-2, Ac-DEVD-ACC (100uM) for caspase-3 and Ac-LEHD-ACC (100uM) for caspase-8. The ACC fluorescence was monitored using 355 nm (excitation) and 460 nm (emission) wavelengths. The substrate-inhibitor mixture (40uL in total) were pre-incubated at 37C for 15 min. At the same time in a separate tube, the caspase was preincubated in assay buffer at 37C, and after 15 min, the enzyme was added to wells (60uL per well, total reaction volume 100uL) and the fluorescence was monitored for 30min, starting immediately. Second-order rate of inhibition (kobs/l) was determined in at least three independent experiments and presented as an average value. GraphPad Prism 7 software was used for calculations (see figure 2).
(§2) The detailed protocol for the expression and purification of human apoptotic caspases can be found elsewhere (Stennicke, 1999).

caspase-3 [3] = target: T2, caspase-3 (Homo sapiens, UniProt P42574); experiment: as above; settings: substrate Ac-DEVD-ACC (100uM), 37°C, dot = thousands separator; for kinact/KI: 0.5 h, pH 7.3, pseudo-first-order conditions; for kobs/I: pseudo-first-order conditions
T2 construct: made in house
T2 sequence (P42574 29-175 limits assumed): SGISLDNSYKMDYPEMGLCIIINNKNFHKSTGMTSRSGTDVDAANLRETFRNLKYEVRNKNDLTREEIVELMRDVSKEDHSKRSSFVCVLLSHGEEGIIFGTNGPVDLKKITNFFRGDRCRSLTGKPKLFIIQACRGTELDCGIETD
T2 sequence (P42574 176-277 limits assumed): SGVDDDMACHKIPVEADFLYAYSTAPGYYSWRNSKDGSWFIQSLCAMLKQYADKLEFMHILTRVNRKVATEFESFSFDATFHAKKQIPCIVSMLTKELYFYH
Method: as §1, §2

caspase-8 [4] = target: T3, caspase-8 (Homo sapiens, UniProt Q14790); experiment: as above; settings: substrate Ac-LEHD-ACC (100uM), 37°C, dot = thousands separator; for kobs/I: pseudo-first-order conditions
T3 construct: made in house
T3 sequence (Q14790 217-374 limits assumed): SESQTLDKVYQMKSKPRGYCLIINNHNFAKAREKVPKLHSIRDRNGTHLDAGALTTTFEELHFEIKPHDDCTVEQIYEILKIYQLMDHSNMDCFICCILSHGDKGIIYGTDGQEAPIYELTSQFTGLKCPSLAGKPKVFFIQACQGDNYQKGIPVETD
T3 sequence (Q14790 385-479 limits assumed): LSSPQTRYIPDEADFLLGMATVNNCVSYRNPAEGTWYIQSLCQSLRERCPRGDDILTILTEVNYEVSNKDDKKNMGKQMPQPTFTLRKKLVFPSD
Method: as §1, §2

caspase-3 [5] = target: T2, caspase-3; experiment: P2 substrates screening, rate of substrate hydrolysis (ACC fluorescence); settings: substrate 10mM (so in the source), caspase-3 15nM, 37°C, rate per 10nM of caspase
Method: (§3) The detailed protocol for the expression and purification of human apoptotic caspases can be found elsewhere (Stennicke, 1999). […] The ACC fluorescence was monitored using 355 nm (excitation) and 460 nm (emission) wavelengths. Before kinetic analysis, all caspases were active site-titrated using the zVAD-fmk inhibitor (Cayman Chemical Company, Cat No. 14467). […] Buffers were prepared at room temperature, and all kinetic assays were performed at 37°C. […] The total volume in a single well was […]. The total assay time was 30 min, but only the linear portion of the fluorescence progress curve was taken for the analysis. The kinetic data were analyzed using Graph Pad Prism software. […]

caspase-8 [6] = target: T3, caspase-8; experiment: as above; settings: substrate 10mM (so in the source), caspase-8 40nM, 37°C, rate per 10nM of caspase
Method: as §3

caspase-2 [7] = target: T1, caspase-2; experiment: as above; parameters: made in house
Method: as §3

Row | RFU/s, %, average (cleavage rate, best substrate set to 100%) (caspase-2 [1]) | Compound | also measured
1 | 0,0% | NH-Idc-Ile-Val-Dab-Asp-ACC | 
2 | 5,9% and 4,6% | NH-Idc-hGlu-Thr(Bzl)-Dab-Asp-ACC | 
3 | 0,0% | NH-Idc-Leu-Abu-Dab-Asp-ACC | 
4 | 0,7% | NH-Idc-Leu-Glu-Dab-Asp-ACC | 
5 | 0,0% | NH-Idc-Leu-Val-Dab-Asp-ACC | 
6 | 0,0% | NH-Idc-Leu-Thr(Bzl)-Dab-Asp-ACC | 
7 | 0,8% | NH-Idc-Ile-Glu-Dab-Asp-ACC | 
8 | 0,2% | NH-Idc-Asp-Glu-Dab-Asp-ACC | 
9 | 75,2% and 72,5% | NH-Idc-hGlu-Glu-Dab-Asp-ACC | 
10 | 0,0% | NH-Idc-Ile-Abu-Dab-Asp-ACC | 
11 | 0,7% | NH-Idc-hLeu-Glu(Chx)-Dab-Asp-ACC | 
12 | 0,0% | NH-Idc-hLeu-Abu-Dab-Asp-ACC | 
13 | 100,0% and 91,7% | NH-Idc-hGlu-Glu(Chx)-Dab-Asp-ACC | 

Continued, compound first:

Row | Compound | RFU/s, %, average (cleavage rate, best substrate set to 100%) (caspase-2 [1]) | also measured
14 | NH-Idc-Ile-Glu(Chx)-Dab-Asp-ACC | 6,3% | 
15 | Cc1cccc(C)c1C(=O)OCC(=O)[C@H](CC(=O)O)NC(=O)[C@H](CCCN)NC(=O)[C@@H](NC(=O)[C@H](CCCC(=O)O)NC(=O)[C@@H]1Cc2ccccc2N1)[C@@H](C)OCc1ccccc1 [NH-Idc-hGlu-Thr(Bzl)-Orn-Asp-AOMK] |  | kobs/I (caspase-2 [2]): 390.000 M⁻¹ s⁻¹; kinact/KI (caspase-3 [3]): 636 M⁻¹ s⁻¹; kobs/I (caspase-8 [4]): 2.300 M⁻¹ s⁻¹
16 | NH-Idc-hGlu-Thr(Bzl)-Dap-Asp-AOMK |  | kobs/I (caspase-2 [2]): 372.000 M⁻¹ s⁻¹; SELECTIVITY Caspase2 vs.Caspase3, C2/C3 kobs/I (caspase-2 [2]; division of kobs/I values, caspase-2/caspase-3): 44.8; SELECTIVITY Caspase2 vs.Caspase8, C2/C8 kobs/I (caspase-2 [2]; division of kobs/I values, caspase-2/caspase-8): 70.2; kobs/I (caspase-3 [3]): 8.300 M⁻¹ s⁻¹; kobs/I (caspase-8 [4]): 5.300 M⁻¹ s⁻¹
17 | NH-Idc-hGlu-Abu-Dab-Asp-ACC | 26,2% | 
18 | NH-Idc-hLeu-Thr(Bzl)-Dab-Asp-ACC | 0,0% | 
19 | NH-Idc-hLeu-Glu-Dab-Asp-ACC | 0,0% | 
20 | Cc1cccc(C)c1C(=O)OCC(=O)[C@H](CC(=O)O)NC(=O)[C@H](CO)NC(=O)[C@@H](NC(=O)[C@H](CCCC(=O)O)NC(=O)[C@@H]1Cc2ccccc2N1)[C@@H](C)OCc1ccccc1 [NH-Idc-hGlu-Thr(Bzl)-Ser-Asp-AOMK, reference compound] |  | kobs/I (caspase-2 [2]): 665.000 M⁻¹ s⁻¹; kobs/I (caspase-3 [3]): 21.000 M⁻¹ s⁻¹; kobs/I (caspase-8 [4]): 11.600 M⁻¹ s⁻¹
21 | NH-Idc-hGlu-Glu(Me)-Dab-Asp-ACC | 76,1% | 
22 | NH-Idc-Leu-Glu(Chx)-Dab-Asp-ACC | 6,9% | 
23 | NH-Idc-Asp-Abu-Dab-Asp-ACC | 0,0% | 
24 | NH-Idc-Asp-Glu(Chx)-Dab-Asp-ACC | 0,2% | 
25 | NH-Idc-Asp-Thr(Bzl)-Dab-Asp-ACC | 0,0% | 
26 | NH-Idc-hLeu-Val-Dab-Asp-ACC | 0,0% | 
27 | Cc1cccc(C)c1C(=O)OCC(=O)[C@H](CC(=O)O)NC(=O)[C@H](CCCCN)NC(=O)[C@@H](NC(=O)[C@H](CCCC(=O)O)NC(=O)[C@@H]1Cc2ccccc2N1)[C@@H](C)OCc1ccccc1 [NH-Idc-hGlu-Thr(Bzl)-Lys-Asp-AOMK] |  | kobs/I (caspase-2 [2]): 400.000 M⁻¹ s⁻¹; kobs/I (caspase-3 [3]): 2.570 M⁻¹ s⁻¹; kobs/I (caspase-8 [4]): 9.900 M⁻¹ s⁻¹
28 | NH-ldc-hGlu-Thr(Bzl)-Ser-Asp-ACC |  | rate of substrate hydrolysis, Caspase-3 (caspase-3 [5]): 4,75 RFU/s/10nM; rate of substrate hydrolysis, Caspase-8 (caspase-8 [6]): 6,57 RFU/s/10nM; Casp-2 vs Casp-3 (caspase-2 [7]; ratio of hydrolysis rates caspase-2/caspase-3): 38,49; Casp-2 vs Casp-8 (caspase-2 [7]; ratio of hydrolysis rates caspase-2/caspase-8): 27,82; rate of substrate hydrolysis, Caspase-2 (caspase-2 [7]; substrate 10mM (so in the source), caspase-2 5nM, 37°C, rate per 10nM of caspase): 182,81 RFU/s/10nM
29 | NH-Idc-hGlu-Val-Dab-Asp-ACC | 5,6% and 6,5% | 
30 | NH-Idc-Ile-Thr(Bzl)-Dab-Asp-ACC | 0,0% | 
31 | Cc1cccc(C)c1C(=O)OCC(=O)[C@H](CC(=O)O)NC(=O)[C@H](CCN)NC(=O)[C@@H](NC(=O)[C@H](CCCC(=O)O)NC(=O)[C@@H]1Cc2ccccc2N1)[C@@H](C)OCc1ccccc1 [NH-Idc-hGlu-Thr(Bzl)-Dab-Asp-AOMK] |  | kobs/I (caspase-2 [2]): 342.000 M⁻¹ s⁻¹; kinact/KI (caspase-3 [3]): 443 M⁻¹ s⁻¹; kinact/KI (caspase-8 [4]; 0.5 h, pH 7.3, pseudo-first-order conditions): 415 M⁻¹ s⁻¹
32 | NH-Idc-Asp-Val-Dab-Asp-ACC | 0,3% | 
